Experiments:
[1] = target: T1, human Histamine H3 receptor (hH3R) (Homo sapiens, UniProt Q9Y5N1); assay: Guanosine 5'-O-(3-[35S]thio)triphosphate [GTPγS] Binding Assay; assay type: biochemical; conditions: antagonist activity; membranes from CHO cells expressing hH3R, (R)-α-methyl histamine 30 nM, [35S]GTPγS 0.2 nM, 90 minutes
T1 construct: expressed in transfected cells; host or cells: CHO cells (membranes)
Experimental: Guanosine 5′-O-(3-[^35]thio)triphosphate [GTPγS] Binding Assay
The GTPγS binding assay can be used to investigate antagonist properties of compounds in CHO cells (Chinese Hamster Ovary) transfected with human Histamine H3 receptor (hH3R). […] To determine antagonist activity, (R)-α-methyl histamine (30 nM) is added in 96 well SPA plate with [^35S]GTPγS (0.2 nM) and various concentration of H3R antagonists. The GTPγS binding assay is started with addition of the mixture membrane/saponine/GDP and incubated for 90 minutes at room temperature. The amount of bound [^35S]GTPγS is determined by using the MicroBeta Trilux counter (PerkinElmer). The percentage of [^35S]GTPγS bound in each sample is calculated as a percentage of that bound control sample incubated in absence of H3 antagonist. Duplicate determinations are obtained for each concentration, and the data are analyzed using ExcelFit4 to obtain the IC50.

[2] = target: human histamine H3 receptors (full-length H3, isoform 445) (Homo sapiens, UniProt Q9Y5N1); conditions: hH3 binding IC50 (nM), inhibition of 1.4 nM [3H]-N-α-methylhistamine binding to CHO-K1 membranes expressing human H3, SPA, 1.5 hr;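 note: scintillation counts read after the 1.5 hr incubation at room temperature with shaking, Imetit serving as reference control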
human histamine H3 receptors (full-length H3, isoform 445), sequence (Q9Y5N1 whole entry, canonical isoform): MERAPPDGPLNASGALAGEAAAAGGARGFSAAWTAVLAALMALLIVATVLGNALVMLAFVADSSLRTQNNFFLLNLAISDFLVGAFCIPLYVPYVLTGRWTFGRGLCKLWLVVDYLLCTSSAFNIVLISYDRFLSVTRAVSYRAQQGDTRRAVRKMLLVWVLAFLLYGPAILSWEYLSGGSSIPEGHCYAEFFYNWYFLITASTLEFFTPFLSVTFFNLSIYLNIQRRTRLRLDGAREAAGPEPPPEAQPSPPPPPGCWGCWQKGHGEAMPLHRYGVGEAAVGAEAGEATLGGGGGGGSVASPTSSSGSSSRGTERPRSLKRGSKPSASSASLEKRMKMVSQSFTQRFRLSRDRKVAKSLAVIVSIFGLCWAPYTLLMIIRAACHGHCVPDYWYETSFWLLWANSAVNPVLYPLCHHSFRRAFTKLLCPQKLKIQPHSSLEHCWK
Experimental: Histamine H3 SPA with the Agonist Radioligand [^3H]—N-α-methylhistamine
Reproducibility of the assay is such that IC50 curves can be generated in singlicate. Single poke (SP) testing was done in triplicate.
Membranes, prepared from CHO-K1 cells stably expressing the human histamine H3 receptor, were obtained from ACS.
Tested formula I compounds were provided as solubilized samples in neat DMSO. Serial dilutions were performed in DMSO.
Plates were read on a Perkin Elmer TopCount. CPM data were used to analyze unless DPM data generated by a quench curve were required.
• 1. 1 mg/ml BSA was added to assay buffer (AB) on day of assay. • 2. […] Buffer volume was split between beads and membranes to allow for polytroning of membranes prior to addition to beads. • a. […] Waited a minimum of 15 minutes prior to adding membranes (See b. below.). • b. […] The homogenized membrane mixture was combined with the beads and a minimum of 30 minutes was waited prior to dispensing to plate. • 3. Formula I compounds: For Single Poke, 2 μl 1 mM of a compound in accordance with formula I was dispensed to Optiplates (triplicate plates) for final concentration of 10 μM. […] Imetit (see below) was used as a control. • 4. […] 5 μl samples were calculated in quadruplicate on the β counter. […] (For IC50s, use final concentration on calculation tab of ABase template.)
• 1. […] 2 μl of the formula I compound dilution was mixed and then transferred into assay plates. DMSO was removed and 2 μl of 100 μM Imetit was added to the wells. • 3. 178 μl bead/membrane mixture was dispensed into the assay plate. • 4. 20 μl [^3H]-NAMH was added with Rapid Plate. The assay plate was sealed and incubated for 1.5 hr on RT shaker at speed ˜6.5. • 5. The assay plate was subsequently centrifuged at 1000 rpm for 10 minutes. • 6. The count was performed on TopCount using one of the 3H SPA H3 Quench programs.
The DPM data was analyzed when tSIS was less than that associated with 70% of full scale on the quench curve (tSIS<25%). Otherwise, CPM data was used.

T1 sequence (Q9Y5N1 whole entry): as the sequence (Q9Y5N1 whole entry, canonical isoform) above

SMILES | IC50 [1] | IC50 [2]
O=C(C1CC12CCN(C1CCC1)CC2)N1CCN(C2CCOCC2)CC1 (stereo not drawn) [Example 22, (6-Cyclobutyl-6-aza-spiro[2.5]oct-1-yl)-[4-(tetrahydro-pyran-4-yl)-piperazin-1-yl]-methanone] | 67 nM | 209 nM
O=C(C1CC12CCN(CCc1ccccc1)CC2)N1CCN(C2CCCCC2)CC1 (single isomer, unassigned) [Example 17, (4-Cyclohexyl-piperazin-1-yl)-(6-phenethyl-6-aza-spiro[2.5]oct-1-yl)-methanone] | 16.4 nM | 27.4 nM
O=C(C1CC12CCN(c1ccncc1)CC2)N1CCN(C2CCCCC2)CC1 (stereo not drawn) [Example 35, (4-Cyclohexyl-piperazin-1-yl)-(6-pyridin-4-yl-6-aza-spiro[2.5]oct-1-yl)-methanone] | 85.3 nM | 165 nM
O=C(C1CC12CCN(C1CCCCC1)CC2)N1CCN(C2CCC2)CC1 (single isomer, unassigned) [Example 27, (4-Cyclobutyl-piperazin-1-yl)-(6-cyclohexyl-6-aza-spiro[2.5]oct-1-yl)-methanone] | 44 nM | 7.68 nM
O=C(C1CC12CCN(C1CCOCC1)CC2)N1CCN(c2ccncc2)CC1 (stereo not drawn) [Example 14, (4-Pyridin-4-yl-piperazin-1-yl)-[6-(tetrahydro-pyran-4-yl)-6-aza-spiro[2.5]oct-1-yl]-methanone] | 139 nM | 26.1 nM
O=C(C1CC12CCN(CCc1ccccc1)CC2)N1CCN(C2CCCCC2)CC1 (single isomer, unassigned) [Example 18, (4-Cyclohexyl-piperazin-1-yl)-(6-phenethyl-6-aza-spiro[2.5]oct-1-yl)-methanone] | 125 nM | 407 nM
CC(C)N1CCC2(CC1)CC2C(=O)N1CCN(C2CCCCC2)CC1 (stereo not drawn) [Example 21, (4-Cyclohexyl-piperazin-1-yl)-(6-isopropyl-6-aza-spiro[2.5]oct-1-yl)-methanone] | 19.3 nM | 141 nM
O=C(C1CC12CCN(C1CCCOC1)CC2)N1CCN(C2CCC2)CC1 (stereo not drawn) [Example 32, (4-Cyclobutyl-piperazin-1-yl)-[6-(tetrahydro-pyran-3-yl)-6-aza-spiro[2.5]oct-1-yl]-methanone] | 17 nM | 15 nM
O=C(C1CC12CCN(C1CCOCC1)CC2)N1CCN(C2CC2)CC1 (stereo not drawn) [Example 9, (4-Cyclopropylpiperazin-1-yl)(6-(tetrahydro-2H-pyran-4-yl)-6-azaspiro[2.5]octan-1-yl)methanone] | 19 nM | 33.5 nM
O=C(C1CC12CCN(C1CCOCC1)CC2)N1CCN(C2CCCCCC2)CC1 (stereo not drawn) [Example 11, (4-Cycloheptylpiperazin-1-yl)(6-(tetrahydro-2H-pyran-4-yl)-6-azaspiro[2.5]octan-1-yl)methanone] | 74 nM | 196 nM

Compounds with a lower IC50 [1], results first:

IC50 [1] | IC50 [2] | SMILES
13 nM | 33.6 nM | O=C(C1CC12CCN(C1CCOCC1)CC2)N1CCN(C2CCCCC2)CC1 (stereo not drawn) [Example 1, (4-Cyclohexyl-piperazin-1-yl)-[6-(tetrahydro-pyran-4-yl)-6-aza-spiro[2.5]oct-1-yl]-methanone]
10.1 nM | 56.5 nM | O=C(C1CC12CCN(C1CCCCC1)CC2)N1CCN(C2CCCCC2)CC1 (stereo not drawn) [Example 19, (6-Cyclohexyl-6-aza-spiro[2.5]oct-1-yl)-(4-cyclohexyl-piperazin-1-yl)-methanone]
6.55 nM | 1.35 nM | O=C(C1CC12CCN(C1CCCCC1)CC2)N1CCN(C2CCC2)CC1 (single isomer, unassigned) [Example 26, (4-Cyclobutyl-piperazin-1-yl)-(6-cyclohexyl-6-aza-spiro[2.5]oct-1-yl)-methanone]
3.66 nM | 4.1 nM | O=C(C1CC12CCN(C1CCOCC1)CC2)N1CCN(C2CCC2)CC1 (stereo not drawn) [Example 8, (4-Cyclobutylpiperazin-1-yl)(6-(tetrahydro-2H-pyran-4-yl)-6-azaspiro[2.5]octan-1-yl)methanone]
3.25 nM | 9.02 nM | CC(C)N1CCN(C(=O)C2CC23CCN(C2CCOCC2)CC3)CC1 (stereo not drawn) [Example 10, (4-Isopropylpiperazin-1-yl)(6-(tetrahydro-2H-pyran-4-yl)-6-azaspiro[2.5]octan-1-yl)methanone]

— US20100168105A1, “Spirocyclopropyl Piperidine Derivatives” (priority 2007, published 2010)
